Experiment [1] has as its system human acute promyelocytic leukemia cells HL 60. Description: Differentiation of HL-60 cells: NBT reduction (counting formazan-containing cells), ED50. The format is cell-based. As to conditions: for EC50: Homo sapiens, read-out: ED50 (effective dose which causes differentiation of 50% of the cultured cells); for activity (in words): HL-60 differentiation, Table 1. As to the method: The test of the activities of the compounds of this invention has been conducted by measuring the concentration required for inducing the differentiation of human acute promyelocytic leukemia cells HL 60, according to the methods described in detail hereinafter.
(§1) The HL-60 cell are cultured in plastic flasks in RPMI 1640 medium supplemented with 5% heat inactivated fetal calf serum and antibiotics (penicillin G and streptomycin). The cells (3×10^4 /ml) are cultured with a compound of the present invention for 4 days. The cells are fixed and stained with Wright-Giemsa to examine the morphological changes of the nuclei.
The biochemical activity of cells treated with the compound is measured as follows:
The cells after 5 days incubation are centrifuged and diluted with RPMI 1640 medium, supplemented with 5% fetal calf serum to provide a definite number of the cells. To the diluted cell suspension are then added 200 ng/ml of 12-o-tetradodecanoylphorbol-13 -acetate (TPA) and the resulting culture medium is then incubated for 20 minutes at 37° C. in the presence of 0.1% of NBT. Thus, the mature differentiated cells containing blue-black formazan is counted by microscopy, so that the ratio of the cells having the ability to reduce NBT, to total cells, can be calculated.
(§2) The biological test was performed according to the method previously described, using the leukemia cells HL 60. The morphological changes were observed under a light microscope. Biochemical activity reducing nitro-blue tetrazolium is assayed by counting the number of cells which contain formazan. The specific activity, ED50 (the concentration which causes the differentiation of 50% of the total cells, represented by M), was calculated and shown in the Table. As a positive control for comparison, all trans retinoic acid was used.

Experiment [2] deals with human acute promyelocytic leukemia cells (HL-60). Nature of the experiment: Differentiation of HL-60 cells: morphological changes of nuclei (Wright-Giemsa). The format is cell-based. As to conditions: HL-60, 4 days culture. As to the method:
as §1, §2

For experiment [3] the following is noted: as seen from the therapeutic index; cited from earlier work.
Experiment [4] has as its system chemically-induced papillomas of the skin of mice. The conditions noted are these: minute quantities; cited from earlier work.
In experiment [5] the test system is chemically-induced skin carcinomas in mice. The conditions noted are these: cited from earlier work.

Molecules are shown by their SMILES. Where two headings read alike, the source gives them in different places.

As to `CC1=C(/C=C/C(C)=C/C=C/C(C)=C/C(=O)O)C(C)(C)CCC1` [retinoic acid, all trans retinoic acid, reference compound], in experiment [1] (HL-60, 96 h), the EC50 stood at 4.1 nM. Moreover, the “differentiation to mature granulocytes” value in experiment [2] is reported as “differentiated to mature granulocytes”.
`CC(C)(C)c1ccc2c(=O)cc(-c3ccc(C(=O)O)cc3)oc2c1` [compound 2]: in experiment [1] (96 h, HL-60 cells), the EC50 was 210 nM.
In the case of `COC(=O)c1ccc(-c2cc(=O)c3cc4c(cc3o2)C(C)(C)CCC4(C)C)cc1` [compound 4], the EC50 in experiment [1] (96 h, HL-60 cells) turned out to be 0.51 nM.
Still for that read-out and setting: as for `CC1(C)CCC(C)(C)c2cc3c(=O)cc(-c4ccc(C(=O)O)cc4)oc3cc21` [compound 5], the figure is 0.063 nM; as for `CC1(C)CCC(C)(C)c2cc(C(=O)C=Cc3ccc(C(=O)O)cc3)c(O)cc21` [compound 7], 0.1 nM.
With `CCOC(=O)c1ccc(/C=C(\C)c2ccc3c(c2)C(C)(C)CCC3(C)C)cc1` [Artinoid], the “activity relative to Retinoic acid” value in experiment [3] is given as “ten times as strong”.
Take `O=C(O)c1ccc(-c2cc(=O)c3ccccc3o2)cc1` [compound 1]: in experiment [1] (HL-60 cells), the “ED50 (effective dose which causes differentiation of 50% of the cultured cells)” value is “inactive (10^-5)”.
For the molecule `CC1(C)CCC(C)(C)c2cc(C(=O)C=C(O)c3ccc(C(=O)O)cc3)c(O)cc21` [No. 8, 4-[1-hydroxy-3-(3-hydroxy-5,6,7,8-tetrahydro-5,5,8,8-tetra-methyl-2-naphthalenyl)-3-oxo-1-propenyl] benzoic acid], the “activity (in words)” value in experiment [1] is “most active compound”.
For `CC1(C)CCC(C)(C)c2cc(C(=O)C=C(O)c3ccc(C(=O)O)cc3)c(O)cc21` [compound 8], in experiment [1] (96 h, HL-60 cells), the EC50 was 0.091 nM.
Still for that read-out and setting: in the case of `CC(C)(C)c1ccc(C(=O)C=C(O)c2ccc(C(=O)O)cc2)c(O)c1` [compound 9] it was 930 nM.
On to `CC1(C)CCC(C)(C)c2cc3c(=O)cc(-c4ccc(C(=O)O)cc4)oc3cc21` [No. 5, 4-(6,7,8,9-tetrahydro-6,6,9,9,-tetramethyl-4H-4-oxo-naphtho[2,3-b]pyran-2-yl) benzoic acid], for which the “activity (in words)” value in experiment [1] is reported as “one of the strongest compounds”.
As to `CC1(C)CCC(C)(C)c2cc3c(=O)c(O)c(-c4ccc(C(=O)O)cc4)oc3cc21` [compound 6], the EC50 in experiment [1] (96 h, HL-60 cells) amounted to 1.2 nM.
Consider `CCOC(=O)c1ccc(/C=C(\C)c2ccc3c(c2)C(C)(C)CCC3(C)C)cc1` [Ro 13 6298], for which, in experiment [4], the regression of papillomas entry was “regression”. Moreover, in experiment [5], the “therapeutic influence on skin carcinomas” value was “therapeutic influence”.

The values above are taken from patent US4925979A, “Flavone carboxylic acid derivatives” (Shionogi & Co., Ltd., priority 1986, dated 1990).
